Source: US20230414619A1 (priority 2020, published 2023)

What was measured:
SARS-CoV-2 = details: emetine inhibition of Rps14; pladienolide inhibition of SF3B1; cited from earlier work
[1] = tested on: PBMCs from a COVID-19 patient; type: cell-based, human

| SMILES | SARS-CoV-2 replication (SARS-CoV-2) | differentially expressed host factors necessary for SARS-CoV-2 pathogenesis (siRNA and CRISPR screens) [1] | differentially expressed host interactors of SARS-CoV-2 viral RNA [1] | differentially expressed host proteins that interact with SARS-CoV-1/2 and MERS encoded proteins [1] | downregulated proteins following treatment [1] | upregulated proteins following treatment [1] | proteins differentially expressed following treatment ([1]; of 5566 proteins quantified, ANOVA P value<0.05, 0-24 h treatment) | differentially expressed proteins whose turnover is G9a dependent in ET macrophages ([1]; out of 292, 78 upregulated, 74 downregulated) |
| --- | --- | --- | --- | --- | --- | --- | --- | --- |
| CC[C@H]1CN2CCc3cc(OC)c(OC)cc3[C@@H]2C[C@@H]1C[C@H]1NCCc2cc(OC)c(OC)cc21 [emetine] | significantly reduced |  |  |  |  |  |  |  |
| CC[C@H](O)[C@@H](C)[C@H]1O[C@@H]1C[C@H](C)/C=C/C=C(\C)[C@H]1OC(=O)C[C@H](O)CC[C@@](C)(O)[C@@H](OC(C)=O)/C=C/[C@@H]1C [pladienolide] | significantly reduced |  |  |  |  |  |  |  |
| COc1cc2c(NC3CCN(C(C)C)CC3)nc(N3CCC(F)(F)CC3)nc2cc1OCCCN1CCCC1 [UNC0642] |  | 8 | 2 | 129 | 151 | 141 | 292 | 152 |
